{"source": "patent US5747493A", "about": "“Dopamine re-uptake inhibitor” (Pola Chemical Industries, Inc., priority 1993, dated 1998)", "molecular_target": "T1, [^3 H] GBR12935 binding in rat strialal crude membrane (Rattus norvegicus, UniProt P23977)", "T1 construct": "from tissue; host or cells: corpus striatum of Wistar male rat, crude membrane", "T1 sequence (P23977 whole entry)": "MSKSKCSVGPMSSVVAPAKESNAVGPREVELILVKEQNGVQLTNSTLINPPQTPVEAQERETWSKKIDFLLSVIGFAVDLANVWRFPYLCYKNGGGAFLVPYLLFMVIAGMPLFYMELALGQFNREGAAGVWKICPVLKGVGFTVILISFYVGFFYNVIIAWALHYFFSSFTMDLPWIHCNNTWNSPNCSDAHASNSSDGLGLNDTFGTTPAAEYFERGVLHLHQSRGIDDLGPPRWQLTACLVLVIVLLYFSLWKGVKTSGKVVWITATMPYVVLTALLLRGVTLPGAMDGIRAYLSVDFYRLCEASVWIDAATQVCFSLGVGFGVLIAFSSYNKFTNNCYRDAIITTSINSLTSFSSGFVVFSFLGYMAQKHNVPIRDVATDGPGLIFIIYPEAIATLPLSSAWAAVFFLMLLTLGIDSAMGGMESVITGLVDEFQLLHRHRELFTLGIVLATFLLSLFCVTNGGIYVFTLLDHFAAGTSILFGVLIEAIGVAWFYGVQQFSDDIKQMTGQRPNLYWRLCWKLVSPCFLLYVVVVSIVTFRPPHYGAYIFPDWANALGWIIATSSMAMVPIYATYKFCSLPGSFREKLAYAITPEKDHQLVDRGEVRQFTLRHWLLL", "test": "[^3 H] GBR12935 binding in rat striatal crude membrane", "design": "species or system rat (Wistar male)", "conditions": "1 nM [^3 H] GBR12935, rat striatal crude membrane; for IC50: 4° C., 80 minutes", "experimental": "After a cold 50 mM Tris-citrate buffer (pH 7.4, including 120 mM NaCl and 4 mM MgCl2) was added to a corpus striatum taken out of a Wistar male rat aged 12-13 weeks (while keeping on ice) to homogenize the resultant mixture, the homogenate was subjected twice to centrifugation under chilling for 20 minutes at 48,000 g. The final sedimentation residue thus obtained was suspended again in the same buffer as that used above to conserve the suspension at -80° C.\nAfter thawing this frozen suspension, the thawed suspension was diluted to one thousandth of the amount of the tissue with the same buffer as that used above. To 0.8 ml of this crude membrane sample, were added [^3 H] GBR12935 (final concentration: 1 nM) and individual test substances and amantadine which is in clinical use at present (developing the concentration within a range of from 10^-3 to 10^-9 M) to 1 ml in total. Each of the resulting sample mixtures was incubated at 4° C. for 80 minutes in a plastic tube. After the incubation, the mixture was filtered by means of suction on a glass filter (Whatman GP/B) soaked in a 0.1% BSA, and the filter was washed three times with 3 ml of cold 0.9% NaCl. The thus-obtained filter was placed in a vial, and 10 ml of Aquazol-2 were added to conserve the filter overnight. Thereafter, the radioactivity of the sample was measured by a liquid scintillation counter. An IC50 value and a Hill coefficient were determined from the obtained uptake inhibition curve as to each of the test samples.", "note": "Where a name gives a salt, the structure may show the parent alone."}
{"smiles": "OC(CNc1ccccc1)CN1CCN(CCCC(c2ccc(F)cc2)c2ccc(F)cc2)CC1", "note": "(single isomer, unassigned; (+)) [Compound 16, (+)-1-[4,4-Bis(4-fluoro-phenyl)butyl]-4-(2-hydroxy-3-phenylaminopropyl)piperazinedihydrochloride]", "values": [{"measurement": "Hill coefficient (nH)", "result": "0.57 ± 0.04"}, {"measurement": "IC50", "result": "0.002 ± 0.00053", "unit": "µM"}]}
{"smiles": "OC(CNc1ccccc1)CN1CCN(CCCC(c2ccc(F)cc2)c2ccc(F)cc2)CC1", "note": "(single isomer, unassigned; (-)) [Compound 15, (-)-1-[4,4-Bis(4-fluoro-phenyl)butyl]-4-(2-hydroxy-3-phenylaminopropyl)piperazinedihydrochloride]", "values": [{"measurement": "Hill coefficient (nH)", "result": "0.72 ± 0.05"}, {"measurement": "IC50", "result": "0.002 ± 0.0001", "unit": "µM"}]}
{"smiles": "NC12CC3CC(CC(C3)C1)C2", "note": "[Amantadine, amantadine, reference compound]", "values": [{"measurement": "Hill coefficient (nH)", "result": "1.36 ± 0.08"}, {"measurement": "IC50", "setting": "amantadine line in μM", "result": "819 ± 30.9", "unit": "µM"}]}
{"smiles": "OC(CNc1ccccc1)CN1CCN(C(c2ccc(F)cc2)c2ccc(F)cc2)CC1", "note": "(centres unmarked) [Compound 2, 1-[Bis(4-fluorophenyl)methyl]-4-(2-hydroxy-3-phenylamino-propyl)piperazine dihydro-chloride]", "values": [{"measurement": "Hill coefficient (nH)", "result": "0.66 ± 0.05"}, {"measurement": "IC50", "result": "0.02 ± 0.003", "unit": "µM"}]}
{"smiles": "Cl.Cl.OC(CNc1ccc(F)cc1)CN1CCN(CCCC(c2ccc(F)cc2)c2ccc(F)cc2)CC1", "note": "(centres unmarked) [Compound 9, 1-[4,4-Bis(4-fluorophenyl)-butyl]-4-[3-(4-fluorophenyl-amino)-2-hydroxypropyl]-piperazine dihydrochloride]", "values": [{"measurement": "Hill coefficient (nH)", "result": "0.74 ± 0.01"}, {"measurement": "IC50", "result": "0.004 ± 0.00023", "unit": "µM"}]}
{"smiles": "Cl.Cl.OC(CNc1ccc(Cl)cc1)CN1CCN(CCCC(c2ccc(F)cc2)c2ccc(F)cc2)CC1", "note": "(centres unmarked) [Compound 10, 1-[4,4-Bis(4-fluorophenyl)-butyl]-4-[3-(4-chlorophenyl-amino)-2-hydroxypropyl]-piperazine dihydrochloride]", "values": [{"measurement": "Hill coefficient (nH)", "result": "0.82 ± 0.03"}, {"measurement": "IC50", "result": "0.003 ± 0.00032", "unit": "µM"}]}
{"smiles": "COc1cc(NCC(O)CN2CCN(CCCC(c3ccc(F)cc3)c3ccc(F)cc3)CC2)cc(OC)c1OC.O=C(O)/C=C\\C(=O)O.O=C(O)/C=C\\C(=O)O", "note": "(centres unmarked) [Compound 11, 1-[4,4-Bis(4-fluorophenyl)-butyl]-4-[2-hydroxy-3-(3,4,5-trimethoxyphenylamino)propyl]-piperazine dimaleate]", "values": [{"measurement": "Hill coefficient (nH)", "result": "0.79 ± 0.04"}, {"measurement": "IC50", "result": "0.043 ± 0.00532", "unit": "µM"}]}
{"smiles": "OC(CNc1ccc(Cl)c(Cl)c1)CN1CCN(CCCC(c2ccc(F)cc2)c2ccc(F)cc2)CC1", "note": "(centres unmarked) [Compound 12, 1-[4,4-Bis(4-fluorophenyl)-buyl]-4-[3-(3,4-dichloro-phenylamino)-2-hydroxy-propyl]piperazinedihydrochloride]", "values": [{"measurement": "Hill coefficient (nH)", "result": "0.74 ± 0.03"}, {"measurement": "IC50", "result": "0.012 ± 0.00072", "unit": "µM"}]}
{"smiles": "COc1ccc(NCC(O)CN2CCN(CCCC(c3ccc(F)cc3)c3ccc(F)cc3)CC2)cc1.Cl.Cl", "note": "(centres unmarked) [Compound 13, 1-[4,4-Bis(4-fluorophenyl)-butyl]-4-(2-hydroxy-3-(4-methoxyphenylamino)propyl]-piperazine dihydrochloride]", "values": [{"measurement": "Hill coefficient (nH)", "result": "0.52 ± 0.02"}, {"measurement": "IC50", "result": "0.003 ± 0.00016", "unit": "µM"}]}
{"smiles": "Cc1ccc(NCC(O)CN2CCN(CCCC(c3ccc(F)cc3)c3ccc(F)cc3)CC2)cc1.Cl.Cl", "note": "(centres unmarked) [Compound 14, 1-[4,4-Bis(4-fluorophenyl)-butyl]-4-[2-hydroxy-3-(4-methylphenylamino)propyl]-piperazine dihydrochloride]", "values": [{"measurement": "Hill coefficient (nH)", "result": "0.65 ± 0.03"}, {"measurement": "IC50", "result": "0.004 ± 0.00041", "unit": "µM"}]}
{"smiles": "O=C(O)/C=C\\C(=O)O.O=C(O)/C=C\\C(=O)O.O=C(O)/C=C\\C(=O)O.OC(CNc1ccncc1)CN1CCN(CCCC(c2ccc(F)cc2)c2ccc(F)cc2)CC1", "note": "(centres unmarked) [Compound 17, 1-[4,4-Bis(4-fluorophenyl)-butyl]-4-[2-hydroxy-3-(4-pyridylamino)propyl]-piperazine trimaleate]", "values": [{"measurement": "Hill coefficient (nH)", "result": "0.74 ± 0.04"}, {"measurement": "IC50", "result": "0.034 ± 0.002", "unit": "µM"}]}
{"smiles": "OC(CNc1ccccc1)CN1CCN(CCC(c2ccc(F)cc2)c2ccc(F)cc2)CC1", "note": "(centres unmarked) [Compound 18, 1-[3,3-Bis(4-fluorophenyl)-propyl]-4-(2-hydroxy-3-phenylaminopropyl)piperazinedihydrochloride]", "values": [{"measurement": "Hill coefficient (nH)", "result": "0.67 ± 0.04"}, {"measurement": "IC50", "result": "0.007 ± 0.00065", "unit": "µM"}]}
{"smiles": "OC(CNc1ccccc1)CN1CCN(CC(c2ccccc2)c2ccccc2)CC1", "note": "(centres unmarked) [Compound 19, 1-(2,2-Diphenylethyl)-4-(2-hydroxy-3-phenylamino-propyl)piperazinedihydrochloride]", "values": [{"measurement": "Hill coefficient (nH)", "result": "0.76 ± 0.02"}, {"measurement": "IC50", "result": "0.028 ± 0.002", "unit": "µM"}]}
{"smiles": "Cl.Cl.O=[N+]([O-])c1ccc(NCC(O)CN2CCN(CCCC(c3ccc(F)cc3)c3ccc(F)cc3)CC2)cc1", "note": "(centres unmarked) [Compound 20, 1-[4,4-Bis(4-fluorophenyl)-butyl]-4-[2-hydroxy-3-(4-nitrophenylamino)propyl]-piperazine dihydrochloride]", "values": [{"measurement": "Hill coefficient (nH)", "result": "0.69 ± 0.04"}, {"measurement": "IC50", "result": "0.008 ± 0.0005", "unit": "µM"}]}
{"smiles": "OC(CNc1ccccc1)CN1CCN(CCCCC(c2ccc(F)cc2)c2ccc(F)cc2)CC1", "note": "(centres unmarked) [Compound 21, 1-[5,5-Bis(4-fluorophenyl)-pentyl]-4-(2-hydroxy-3-phenylaminopropyl)piperazinedihydrochloride]", "values": [{"measurement": "Hill coefficient (nH)", "result": "0.89 ± 0.07"}, {"measurement": "IC50", "result": "0.006 ± 0.00032", "unit": "µM"}]}
{"smiles": "CC(C)(C)c1cc(NCC(O)CN2CCN(CCCC(c3ccc(F)cc3)c3ccc(F)cc3)CC2)cc(C(C)(C)C)c1O", "note": "(centres unmarked) [Compound 22, 1-[4,4-Bis(4-fluorophenyl)-butyl]-4-[3-(3,5-di-tert-butyl-4-hydroxyphenylamino)-2-hydroxypropyl]piperazinetrimaleate]", "values": [{"measurement": "Hill coefficient (nH)", "result": "0.78 ± 0.07"}, {"measurement": "IC50", "result": "0.087 ± 0.007", "unit": "µM"}]}
{"smiles": "Nc1ccc(NCC(O)CN2CCN(CCCC(c3ccc(F)cc3)c3ccc(F)cc3)CC2)cc1", "note": "(centres unmarked) [Compound 23, 1-[3-(4-Aminophenylamino)-2-hydroxypropyl]-4-(4,4-bis(4-fluorophenyl)butyl]piperazinetrimaleate]", "values": [{"measurement": "Hill coefficient (nH)", "result": "0.64 ± 0.09"}, {"measurement": "IC50", "result": "0.037 ± 0.009", "unit": "µM"}]}
{"smiles": "CN(C)c1ccc(NCC(O)CN2CCN(CCCC(c3ccc(F)cc3)c3ccc(F)cc3)CC2)cc1", "note": "(centres unmarked) [Compound 24, 1-[4,4-Bis(4-fluorophenyl)-butyl]-4-[3-(4-dimethyl-aminophenylamino)-2-hydroxy-propyl]piperazine dimaleate]", "values": [{"measurement": "Hill coefficient (nH)", "result": "0.94 ± 0.10"}, {"measurement": "IC50", "result": "0.109 ± 0.019", "unit": "µM"}]}
{"smiles": "O=C(O)/C=C\\C(=O)O.O=C(O)/C=C\\C(=O)O.Oc1ccc(NCC(O)CN2CCN(CCCC(c3ccc(F)cc3)c3ccc(F)cc3)CC2)cc1", "note": "(centres unmarked) [Compound 25, 1-[4,4-Bis(4-fluorophenyl)-butyl]-4-[2-hydroxy-3-(4-hydroxyphenylamino)propyl]-piperazine dimaleate]", "values": [{"measurement": "Hill coefficient (nH)", "result": "0.63 ± 0.09"}, {"measurement": "IC50", "result": "0.01 ± 0.003", "unit": "µM"}]}
